Here are results for eight compounds from ChEMBL document CHEMBL1136462, “The effect of remote chirality on the antibacterial activity of indolinyl, tetrahydroquinolyl and dihydrobenzoxazinyl oxazolidinones” (Bioorg Med Chem Lett, 2003).

≈ marks a conversion by molar mass, not a printed value. Some results are limits rather than exact numbers.

In one series the test system is Enterococcus faecalis. Nature of the series: In vitro antibacterial activity against vancomycin susceptible Enterococcus faecalis UC19217 (VSEF). It counts as functional.
In a further series the test system is Haemophilus influenzae. Nature of the series: In vitro antibacterial activity against ampicillin resistant Haemophilus influenzae 30063 (AMPR b-lactamase+). It counts as functional.
In a further series the test system is Moraxella catarrhalis. Nature of the series: In vitro antibacterial activity against Moraxella catarrhalis 30607 (b-lactamase+). In kind it is functional.
The test system of series [1] is Staphylococcus epidermidis. Description: In vitro antibacterial activity against methicillin resistant Staphylococcus epidermis US 12084 (MRSE). It counts as functional.
Series [2] relates to Staphylococcus aureus. Description: In vitro antibacterial activity against methicillin susceptible Staphylococcus aureus UC19213 (MSSA); (SA1). It counts as functional.
Series [3] concerns Staphylococcus aureus. Nature of the series: In vitro antibacterial activity against Staphylococcus aureus UC12673 (SA2). It counts as functional.
The test system of another series is Streptococcus pneumoniae. Description: In vitro antibacterial activity against penicillin susceptible Streptococcus pneumoniae UC19912 (PSSP). In kind it is functional.
Series [4] can be described thus: Oral bioavailability of compound (19.2 mg/kg) after po administration was determined in Sprague-Dawley rat. Particulars: in vivo. In kind it is ADME, organism-based.
Series [5] can be described thus: Clearance (Cl) of compound (9.83 mg/kg) after iv administration was determined in Sprague-Dawley rat. It counts as ADME, organism-based. Particulars: in vivo.
Series [6] is described as follows: Maximum plasma concentration (Cmax) of compound (19.2 mg/kg) after po administration was determined Sprague-Dawley rat. Details: dose 19.2 mg/kg, route oral. It counts as ADME, organism-based.
The nature of series [7]: Maximum plasma concentration (Cmax) of compound (9.83 mg/kg) after iv administration was determined Sprague-Dawley rat. Details: dose 9.83 mg/kg, route intravenous. It counts as ADME, organism-based.
Series [8] is described as follows: Steady state volume distribution (Vss) of compound(9.83 mg/kg) after iv administration was determined in Sprague-Dawley rat. The settings on record: in vivo, read-out: Vss. In kind it is ADME, organism-based.
Series [9] in a line: Half life of compound (19.2 mg/kg) after po administration was determined in Sprague-Dawley rat. It counts as ADME, organism-based. Particulars: in vivo.
Series [10] in a line: Half life of compound (9.83 mg/kg) after iv administration was determined in Sprague-Dawley rat. Particulars: in vivo. It counts as ADME, organism-based.
Series [11] can be described thus: Tmax of compound (19.2 mg/kg) after po administration was determined in Sprague-Dawley rat. In kind it is ADME, organism-based. The settings on record: in vivo.
For a further series, the system named is Mus musculus. Nature of the series: In vivo efficacy of compound against Staphylococcus aureus UC9213 was determined after peroral administration in mouse. In kind it is functional. Particulars: po.

Regarding `CC(=O)NC[C@H]1CN(c2ccc3c(c2)CC[C@@H](C)N3C=O)C(=O)O1`, the MIC against Enterococcus faecalis was 1 µg/mL (≈ 3.02 µM); against Haemophilus influenzae, 32 µg/mL (≈ 96.6 µM); in the series with Moraxella catarrhalis, 4 µg/mL (≈ 12.1 µM); in series [1], below 0.5 µg/mL; against Staphylococcus aureus [2], 2 µg/mL (≈ 6.04 µM); against Staphylococcus aureus [3], 1 µg/mL (≈ 3.02 µM). Besides, in the series with Streptococcus pneumoniae, the MIC is below 0.5 µg/mL.
On to `C/C(S)=N/C[C@H]1CN(c2ccc3c(c2)OC[C@@H](C)N3C=O)C(=O)O1`, for which the MIC against Enterococcus faecalis was 1 µg/mL (≈ 2.86 µM); against Haemophilus influenzae, 32 µg/mL (≈ 91.6 µM); in the series on Moraxella catarrhalis it was 2 µg/mL (≈ 5.72 µM); in [1] it was below 0.5 µg/mL; against Staphylococcus aureus [2], below 0.5 µg/mL; with Staphylococcus aureus [3], below 0.5 µg/mL. In addition, the MIC in the series on Streptococcus pneumoniae was 0.5 µg/mL (≈ 1.43 µM).
`CC(=O)NC[C@H]1CN(c2ccc3c(c2)C[C@H](C)N3C=O)C(=O)O1`: the MIC in the series with Enterococcus faecalis was 16 µg/mL (≈ 50.4 µM); against Haemophilus influenzae, above 64 µg/mL; in the series on Moraxella catarrhalis it was above 64 µg/mL; in [1], 4 µg/mL (≈ 12.6 µM); with Staphylococcus aureus [2], 8 µg/mL (≈ 25.2 µM); against Staphylococcus aureus [3], 8 µg/mL (≈ 25.2 µM). In the series with Streptococcus pneumoniae, the MIC stood at 4 µg/mL (≈ 12.6 µM).
With `CC(=O)NC[C@H]1CN(c2ccc3c(c2)C[C@H](C)N3C(=O)CO)C(=O)O1`, the MIC is 8 µg/mL (≈ 23 µM) in the series with Enterococcus faecalis; above 16 µg/mL in the series on Haemophilus influenzae; 16 µg/mL (≈ 46.1 µM) against Moraxella catarrhalis; 2 µg/mL (≈ 5.76 µM) in series [1]; 8 µg/mL (≈ 23 µM) in the series on Staphylococcus aureus [2]; 8 µg/mL (≈ 23 µM) against Staphylococcus aureus [3]. Besides, in the series with Streptococcus pneumoniae, the MIC was 1 µg/mL (≈ 2.88 µM).
The bioavailability is the share of a dose that reaches the circulation, judged against a reference dose that is usually intravenous. The low end stands for poor availability, the high end for good availability. The clearance is the rate of elimination divided by the concentration. Read a low clearance as a low capacity for elimination. By Cmax is commonly meant the maximum level reached in the sampled fluid or tissue. A word on the half-life: it is how long it takes for the measured level to halve. A lower half-life goes with rapid decline. The term Tmax denotes the time at which the peak concentration occurs. Usually ED50 stands for the midpoint of the dose-response relation. The low end stands for an effect at a small dose, the high end for a need for a large dose. In series [4], `C/C(S)=N/C[C@H]1CN(c2ccc3c(c2)C[C@@H](C)N3C=O)C(=O)O1` displayed a bioavailability of 30.8%. In [5], this compound came in with a clearance of 28.9 mL/min/kg. Besides, the Cmax in [6] was 1130 ng/mL; in series [7], 13600 ng/mL. Besides, in [8], the Vd is 0.64 L/kg. The half-life in series [9] is 36.6 min; in [10], 6 min. The Tmax in series [11] was 30 min. In addition, the MIC is below 0.5 µg/mL against Enterococcus faecalis; 2 µg/mL (≈ 6 µM) against Haemophilus influenzae; 1 µg/mL (≈ 3 µM) in the series with Moraxella catarrhalis; below 0.5 µg/mL in [1]; below 0.5 µg/mL in the series on Staphylococcus aureus [2]; below 0.5 µg/mL against Staphylococcus aureus [3]. Also, the MIC against Streptococcus pneumoniae was below 0.5 µg/mL. In the series on Mus musculus, the 50% effect level (ED50) was put at a dose of 7.5 mg/kg.
For the compound `CC(=O)NC[C@H]1CN(c2ccc3c(c2)OC[C@H](C)N3C=O)C(=O)O1`, the MIC in the series with Enterococcus faecalis was 32 µg/mL (≈ 96 µM); with Haemophilus influenzae, 64 µg/mL (≈ 192 µM); with Moraxella catarrhalis, 32 µg/mL (≈ 96 µM); in series [1] it was below 4 µg/mL; in the series on Staphylococcus aureus [2], 8 µg/mL (≈ 24 µM); in the series with Staphylococcus aureus [3], 8 µg/mL (≈ 24 µM). Besides, the MIC in the series on Streptococcus pneumoniae was below 4 µg/mL.
Regarding `CC(=O)NC[C@H]1CN(c2ccc3c(c2)C[C@@H](C)N3)C(=O)O1`, the MIC in the series with Enterococcus faecalis was 16 µg/mL (≈ 55.3 µM); against Haemophilus influenzae, above 64 µg/mL; in the series with Moraxella catarrhalis, above 61 µg/mL; in series [1] it was 4 µg/mL (≈ 13.8 µM); against Staphylococcus aureus [2], 8 µg/mL (≈ 27.6 µM); with Staphylococcus aureus [3], 8 µg/mL (≈ 27.6 µM). Further, the MIC against Streptococcus pneumoniae was 4 µg/mL (≈ 13.8 µM).
`CC(=O)NC[C@H]1CN(c2ccc3c(c2)C[C@H](C)N3)C(=O)O1`: the MIC was 64 µg/mL (≈ 221 µM) against Enterococcus faecalis; above 64 µg/mL in the series on Haemophilus influenzae; above 64 µg/mL in the series with Moraxella catarrhalis; 16 µg/mL (≈ 55.3 µM) in [1]; 32 µg/mL (≈ 111 µM) against Staphylococcus aureus [2]; 32 µg/mL (≈ 111 µM) against Staphylococcus aureus [3].
